Structures can show the parent of a compound that is named as a salt.

Data set [1] has as its target T1, recombinant 11β-HSD1 protein (Homo sapiens, UniProt P28845).
T1 construct: made in house; host or cells: Saccharomyces cerevisiae
Description: 11β-HSD1 SPA (Scintillation Proximity Assay) enzyme inhibition test, 384-well format. The data set is classed as biochemical. To be noted: 3H-cortisone and NADPH; cortisol formed measured by SPA; read-out: IC50 (concentration which inhibits 50% of the activity of 11β-HSD1). From the text: The compounds according to the invention formed the subject of pharmacological tests which make it possible to determine their inhibiting effect on the 11β-HSD1 enzyme, which is an enzyme which is involved in the metabolism of lipids or the metabolism of glucose.
These tests consisted in measuring the in vitro inhibiting activity of the compounds of the invention by virtue of an SPA (Scintillation Proximity Assay) test in 384-well format. The recombinant 11β-HSD1 protein was produced in the yeast S. cerevisiae. The reaction was carried out by incubating the enzyme in the presence of ^3H-cortisone and of NADPH, in the absence or in the presence of an increasing concentration of inhibitor. SPA beads coupled to an antimouse antibody, which are preincubated with anticortisol antibody, made it possible to measure the amount of cortisol formed during the reaction.
The inhibiting activity with regard to the enzyme 11β-HSD1 is given by the concentration which inhibits 50% of the activity of 11β-HSD1 (IC50).
On the technique in general: In a scintillation proximity assay essentially only radioactivity close to the scintillant gives light.

The target in another data set is T2, 11βHSD1 in the eyes (Homo sapiens, UniProt P28845).
T2 construct: host or cells: eyes of healthy volunteers (in vivo)
T2 sequence (P28845 whole entry): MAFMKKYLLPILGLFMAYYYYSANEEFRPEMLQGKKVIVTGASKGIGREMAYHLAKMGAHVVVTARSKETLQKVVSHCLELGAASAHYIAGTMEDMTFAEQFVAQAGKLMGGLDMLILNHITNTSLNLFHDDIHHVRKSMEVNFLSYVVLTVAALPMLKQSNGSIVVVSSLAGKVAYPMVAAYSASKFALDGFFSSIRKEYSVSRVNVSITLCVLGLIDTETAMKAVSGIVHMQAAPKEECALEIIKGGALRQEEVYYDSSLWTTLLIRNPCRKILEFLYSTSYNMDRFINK
The following applies: healthy volunteers, after treating for seven days; cited from earlier work.

T1 sequence (P28845 whole entry, species assumed): as the sequence (P28845 whole entry) above

In the case of `CS(=O)(=O)c1ccc(CN2CCN(C(=O)N3CCC(c4cn[nH]c4)C3)c3ccccc32)cc1` (centres unmarked) [compound 161, [4-(4-(Methanesulfonyl)benzyl)-3,4-dihydro-2H-quinoxalin-1-yl][3-(1H-pyrazol-4-yl)pyrrolidin-1-yl]methanone], the melting point – broadly, the temperature, or range, at which the solid turns liquid – was 239 °C.
As for `Cl.O=C(N1CCC(c2ccncc2)CC1)N1CCCc2ccccc21` [compound 4, 1-[(4-(Pyridin-4-yl)piperidin-1-yl)carbonyl]-1,2,3,4-tetrahydroquinoline Hydrochloride], the melting point was found to be 198 °C. Moreover, in data set [1], the IC50 was determined as 115 nM.
Consider `O=C(N1CCC2(CCCc3ccccc32)CC1)N1CCCc2ccccc21` [compound 18], for which the melting point was in the range of 52 to 65 °C. Also, the IC50 in data set [1] was 43 nM.
On to `CCCN1CCN(C(=O)N2CCC(c3cccnc3)C2)c2ccccc21` (centres unmarked) [compound 101], for which the IC50 in data set [1] came out at 90 nM.
The same measure, in the same setting: for `COc1cc(N2CCN(C(=O)N3CCC(c4cn[nH]c4)C3)c3ccccc32)ccc1C(=O)NC1CC1` (centres unmarked) [compound 78] the value was 39 nM.
In turn, `CCCN1CCN(C(=O)N2CCC(c3cccnc3)C2)c2ccccc21` (centres unmarked) (as salt: HCl) [compound 101] came in with a melting point of 121 °C.
As to `CC1(C)[C@@H](OC(=O)CCC(=O)O)CC[C@]2(C)[C@H]3C(=O)C=C4[C@@H]5C[C@@](C)(C(=O)O)CC[C@]5(C)CC[C@@]4(C)[C@]3(C)CC[C@@H]12` [carbenoxolone], the “reduction of the intraocular pressure (IOP)” value at 11βHSD1 in the eyes is recorded as 18%.
`CCCCN1CCN(C(=O)N2CCC(c3cccnc3)C2)c2ccccc21.Cl` (centres unmarked) registered a melting point of 191 °C.
Same read-out and setting: for `Cl.O=C(N1CCC(c2cccnc2)C1)N1CCOc2ccccc21` (centres unmarked) the value was 60 to 90 °C; for `O=C(NN1CCCCC1)c1ccc(N2CCN(C(=O)N3CCC(c4cn[nH]c4)C3)c3ccccc32)cc1` (centres unmarked) [compound 172, N-(Piperidin-1-yl)-4-{4-[3-(1H-pyrazol-4-yl)pyrrolidine-1-carbonyl]-3,4-dihydro-2H-quinoxalin-1-yl}benzamide], 251 °C; for `COc1cc(N2CCN(C(=O)N3CCC(c4cn[nH]c4)C3)c3ccccc32)ccc1C(=O)NC1CC1` (centres unmarked) [compound 178, N-Cyclopropyl-2-methoxy-4-{4-[3-(1H-pyrazol-4-yl)pyrrolidine-1-carbonyl]-3,4-dihydro-2H-quinoxalin-1-yl}benzamide], 100 °C.
In turn, `Cl.O=C(N1CCC(c2cccnc2)C1)N1CCOc2ccc(CO)cc21` (centres unmarked) showed a melting point of 273 °C.
The same measure, in the same setting: for `N#CC1(c2ccccc2)CCN(C(=O)N2CCCc3ccccc32)CC1` the value was 53 to 59 °C; for `O=C(N1CCC2(C=Cc3ccccc32)CC1)N1CCCc2ccccc21` [compound 15, 1′-(3,4-Dihydroquinolin-1(2H)-ylcarbonyl)spiro[indene-1,4′-piperidine]], 130 to 133 °C.
For the compound `NC(=O)c1ccc(N2CCN(C(=O)N3CCC(c4cn[nH]c4)C3)c3ccccc32)cn1` (centres unmarked) [compound 188], the melting point came out at 90 °C. In data set [1], the IC50 worked out at 130 nM.
On to `CN(C)C(=O)N1CCN(C(=O)N2CCC(c3cccnc3)C2)c2ccccc21.Cl` (centres unmarked), for which the melting point worked out at 181 °C.
Take `N#Cc1cccc(CN2CCN(C(=O)N3CCC(c4cn[nH]c4)C3)c3ccccc32)c1` (centres unmarked) [compound 162]: the melting point amounted to 174 °C. In data set [1], the IC50 is 57 nM.
In the case of `CC(=O)N1CCN(C(=O)N2CCC(c3cccnc3)C2)c2ccccc21.Cl` (centres unmarked), the melting point was 201 °C.
On the same count and under the same terms, under `O=C(N1CCC(c2nc(-c3c(Cl)cccc3Cl)no2)CC1)N1CCCc2ccccc21` [compound 25, 1-({4-[3-(2,6-Dichlorophenyl)-1,2,4-oxadiazol-5-yl]piperidin-1-yl}carbonyl)-1,2,3,4-tetrahydroquinoline] stands 63 to 68 °C.

(Values after patent US7947834B2, “Substituted quinoxalines, their preparation and their therapeutical use as 11βHSD1 modulators” (Sanofi-Aventis, priority 2006, dated 2011).)
